From ChEMBL document CHEMBL4507260 (2021)

Experiments:
Details in all cases: Compound concentration 1000.0 nM
[1] = system: Tyrosine-protein kinase ABL1 (Homo sapiens), P00519 [H396P]
[2] = biological target: Activin receptor type-1-like (Homo sapiens) (UniProt P37023)
[3] = biological target: 5'-AMP-activated protein kinase catalytic subunit alpha-1 (Homo sapiens) (UniProt Q13131)
[4] = biological target: Tyrosine-protein kinase receptor UFO (Homo sapiens) (UniProt P30530)
[5] = biological target: Serine/threonine-protein kinase BRSK1 (Homo sapiens) (UniProt Q8TDC3)
[6] = biological target: Cyclin-dependent kinase 11A (Homo sapiens) (UniProt Q9UQ88)
[7] = biological target: Cyclin-dependent kinase 3 (Homo sapiens) (UniProt Q00526)
[8] = biological target: Cyclin-dependent kinase 8 (Homo sapiens) (UniProt P49336)
[9] = biological target: Cyclin-dependent kinase-like 2 (Homo sapiens) (UniProt Q92772)
[10] = biological target: Discoidin domain-containing receptor 2 (Homo sapiens) (UniProt Q16832)
[11] = system: Epidermal growth factor receptor (Homo sapiens), P00533 [UNDEFINED MUTATION]
[12] = system: Epidermal growth factor receptor (Homo sapiens), P00533 [UNDEFINED MUTATION]; remark: listed apart in the source
[13] = biological target: Tyrosine-protein kinase Fgr (Homo sapiens) (UniProt P09769)
[14] = biological target: Receptor-type tyrosine-protein kinase FLT3 (Homo sapiens) (UniProt P36888)
[15] = biological target: Tyrosine-protein kinase Fyn (Homo sapiens) (UniProt P06241)
[16] = biological target: Mitogen-activated protein kinase 10 (Homo sapiens) (UniProt P53779)
[17] = system: Mast/stem cell growth factor receptor Kit (Homo sapiens), P10721 [L576P]
[18] = system: Mast/stem cell growth factor receptor Kit (Homo sapiens), P10721 [V559D,V654A]
[19] = biological target: Tyrosine-protein kinase Lck (Homo sapiens) (UniProt P06239)
[20] = biological target: LIM domain kinase 1 (Homo sapiens) (UniProt P53667)
[21] = biological target: Mitogen-activated protein kinase kinase kinase 13 (Homo sapiens) (UniProt O43283)
[22] = biological target: Mitogen-activated protein kinase kinase kinase kinase 2 (Homo sapiens) (UniProt Q12851)
[23] = biological target: Serine/threonine-protein kinase MARK1 (Homo sapiens) (UniProt Q9P0L2)
[24] = biological target: Maternal embryonic leucine zipper kinase (Homo sapiens) (UniProt Q14680)
[25] = biological target: Serine/threonine-protein kinase 3 (Homo sapiens) (UniProt Q13188)
[26] = biological target: Serine/threonine-protein kinase 38-like (Homo sapiens) (UniProt Q9Y2H1)
[27] = biological target: Serine/threonine-protein kinase Nek2 (Homo sapiens) (UniProt P51955)
[28] = biological target: Serine/threonine-protein kinase Nek4 (Homo sapiens) (UniProt P51957)
[29] = biological target: Serine/threonine-protein kinase NLK (Homo sapiens) (UniProt Q9UBE8)
[30] = biological target: Mitogen-activated protein kinase 14 (Homo sapiens) (UniProt Q16539)
[31] = biological target: Mitogen-activated protein kinase 11 (Homo sapiens) (UniProt Q15759)
[32] = biological target: Phosphatidylinositol 4,5-bisphosphate 3-kinase catalytic subunit alpha isoform (Homo sapiens) (UniProt P42336)
[33] = biological target: cAMP-dependent protein kinase catalytic subunit PRKX (Homo sapiens) (UniProt P51817)
[34] = biological target: RAF proto-oncogene serine/threonine-protein kinase (Homo sapiens) (UniProt P04049)
[35] = system: Proto-oncogene tyrosine-protein kinase receptor Ret (Homo sapiens), P07949 [M918T]
[36] = biological target: Dual serine/threonine and tyrosine protein kinase (Homo sapiens) (UniProt Q6XUX3)
[37] = biological target: Rho-associated protein kinase 1 (Homo sapiens) (UniProt Q13464)
[38] = biological target: Ribosomal protein S6 kinase alpha-4 (Homo sapiens) (UniProt O75676)
[39] = biological target: Serine/threonine-protein kinase SBK1 (Homo sapiens) (UniProt Q52WX2)
[40] = biological target: Serine/threonine-protein kinase Sgk1 (Homo sapiens) (UniProt O00141)
[41] = biological target: Serine/threonine-protein kinase Sgk2 (Homo sapiens) (UniProt Q9HBY8)
[42] = biological target: TGF-beta receptor type-1 (Homo sapiens) (UniProt P36897)
[43] = biological target: Testis-specific serine/threonine-protein kinase 1 (Homo sapiens) (UniProt Q9BXA7)
[44] = biological target: Serine/threonine-protein kinase ULK2 (Homo sapiens) (UniProt Q8IYT8)
[45] = biological target: Serine/threonine-protein kinase VRK2 (Homo sapiens) (UniProt Q86Y07)
Sequence of Serine/threonine-protein kinase VRK2 (Homo sapiens) (Q86Y07 whole entry): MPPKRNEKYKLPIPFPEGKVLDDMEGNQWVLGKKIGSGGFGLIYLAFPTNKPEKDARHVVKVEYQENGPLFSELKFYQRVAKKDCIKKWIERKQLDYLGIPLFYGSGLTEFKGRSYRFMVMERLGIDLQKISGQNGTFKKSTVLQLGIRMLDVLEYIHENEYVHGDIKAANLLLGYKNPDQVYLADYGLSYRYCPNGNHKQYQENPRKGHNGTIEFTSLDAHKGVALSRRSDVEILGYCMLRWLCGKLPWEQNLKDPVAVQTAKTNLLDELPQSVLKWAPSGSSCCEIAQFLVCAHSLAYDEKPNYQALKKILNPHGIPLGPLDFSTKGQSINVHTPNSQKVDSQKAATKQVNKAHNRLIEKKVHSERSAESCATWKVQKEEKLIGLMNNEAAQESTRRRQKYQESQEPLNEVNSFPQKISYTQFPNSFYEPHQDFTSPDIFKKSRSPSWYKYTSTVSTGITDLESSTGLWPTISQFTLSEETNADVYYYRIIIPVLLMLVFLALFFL

Sequence of Epidermal growth factor receptor (Homo sapiens), P00533 [UNDEFINED MUTATION] (P00533 whole entry, looked up, change not shown): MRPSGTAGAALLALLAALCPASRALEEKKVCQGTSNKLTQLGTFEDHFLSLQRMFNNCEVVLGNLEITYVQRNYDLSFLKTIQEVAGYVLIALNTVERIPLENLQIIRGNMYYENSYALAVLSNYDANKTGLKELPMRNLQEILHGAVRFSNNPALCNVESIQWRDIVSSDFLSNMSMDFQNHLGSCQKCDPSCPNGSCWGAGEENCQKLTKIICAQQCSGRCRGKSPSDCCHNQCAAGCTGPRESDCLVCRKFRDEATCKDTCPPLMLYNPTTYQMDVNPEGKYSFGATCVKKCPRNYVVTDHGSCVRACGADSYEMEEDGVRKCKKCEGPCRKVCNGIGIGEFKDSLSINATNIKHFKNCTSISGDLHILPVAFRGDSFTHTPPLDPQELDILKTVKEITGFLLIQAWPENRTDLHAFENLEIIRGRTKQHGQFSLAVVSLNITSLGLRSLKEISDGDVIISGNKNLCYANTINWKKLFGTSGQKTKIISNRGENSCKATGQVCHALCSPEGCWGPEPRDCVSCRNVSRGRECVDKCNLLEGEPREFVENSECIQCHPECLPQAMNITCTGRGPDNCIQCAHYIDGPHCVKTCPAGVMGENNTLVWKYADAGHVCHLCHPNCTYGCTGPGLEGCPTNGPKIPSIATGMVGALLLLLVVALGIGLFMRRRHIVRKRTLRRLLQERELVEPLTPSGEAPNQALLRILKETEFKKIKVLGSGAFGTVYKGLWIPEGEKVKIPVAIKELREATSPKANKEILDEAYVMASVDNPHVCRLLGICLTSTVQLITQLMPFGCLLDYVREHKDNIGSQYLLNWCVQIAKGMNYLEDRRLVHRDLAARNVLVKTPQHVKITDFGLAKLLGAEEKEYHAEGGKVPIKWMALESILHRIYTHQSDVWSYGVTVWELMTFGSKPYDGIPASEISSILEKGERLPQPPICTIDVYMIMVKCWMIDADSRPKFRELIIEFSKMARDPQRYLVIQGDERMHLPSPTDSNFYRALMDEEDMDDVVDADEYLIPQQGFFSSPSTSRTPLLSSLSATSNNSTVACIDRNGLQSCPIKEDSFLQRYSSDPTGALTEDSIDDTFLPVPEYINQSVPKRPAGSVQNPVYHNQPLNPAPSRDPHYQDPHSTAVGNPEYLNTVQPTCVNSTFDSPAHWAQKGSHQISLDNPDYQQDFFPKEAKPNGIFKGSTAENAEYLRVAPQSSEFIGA
Sequence of Tyrosine-protein kinase Fyn (Homo sapiens) (P06241 2-537 limits assumed): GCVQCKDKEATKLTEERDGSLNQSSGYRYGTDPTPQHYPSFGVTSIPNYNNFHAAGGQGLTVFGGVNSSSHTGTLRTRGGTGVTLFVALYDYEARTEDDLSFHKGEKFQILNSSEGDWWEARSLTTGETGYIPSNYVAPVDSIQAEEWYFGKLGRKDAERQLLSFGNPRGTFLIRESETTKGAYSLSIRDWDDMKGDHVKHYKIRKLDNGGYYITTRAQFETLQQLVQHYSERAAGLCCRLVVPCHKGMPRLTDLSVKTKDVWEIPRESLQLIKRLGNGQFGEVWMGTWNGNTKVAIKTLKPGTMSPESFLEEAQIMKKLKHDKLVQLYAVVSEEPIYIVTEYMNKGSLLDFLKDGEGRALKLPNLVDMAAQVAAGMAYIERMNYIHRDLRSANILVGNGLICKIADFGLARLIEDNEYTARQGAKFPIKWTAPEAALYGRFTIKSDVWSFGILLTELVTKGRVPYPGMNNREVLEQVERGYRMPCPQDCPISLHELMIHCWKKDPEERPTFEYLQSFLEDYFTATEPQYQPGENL
Sequence of Serine/threonine-protein kinase Sgk1 (Homo sapiens) (O00141 whole entry): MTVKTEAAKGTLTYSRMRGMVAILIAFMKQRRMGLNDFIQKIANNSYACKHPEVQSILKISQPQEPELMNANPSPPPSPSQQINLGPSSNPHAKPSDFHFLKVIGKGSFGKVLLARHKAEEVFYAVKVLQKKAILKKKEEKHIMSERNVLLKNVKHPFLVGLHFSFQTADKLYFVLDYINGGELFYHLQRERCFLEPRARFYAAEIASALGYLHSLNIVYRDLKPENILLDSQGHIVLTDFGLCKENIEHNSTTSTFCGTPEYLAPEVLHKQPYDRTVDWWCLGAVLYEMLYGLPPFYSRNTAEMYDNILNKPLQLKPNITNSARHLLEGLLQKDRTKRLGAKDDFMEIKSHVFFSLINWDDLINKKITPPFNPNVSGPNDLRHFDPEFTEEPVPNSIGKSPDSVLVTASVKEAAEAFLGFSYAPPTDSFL
Sequence of Serine/threonine-protein kinase BRSK1 (Homo sapiens) (Q8TDC3 whole entry): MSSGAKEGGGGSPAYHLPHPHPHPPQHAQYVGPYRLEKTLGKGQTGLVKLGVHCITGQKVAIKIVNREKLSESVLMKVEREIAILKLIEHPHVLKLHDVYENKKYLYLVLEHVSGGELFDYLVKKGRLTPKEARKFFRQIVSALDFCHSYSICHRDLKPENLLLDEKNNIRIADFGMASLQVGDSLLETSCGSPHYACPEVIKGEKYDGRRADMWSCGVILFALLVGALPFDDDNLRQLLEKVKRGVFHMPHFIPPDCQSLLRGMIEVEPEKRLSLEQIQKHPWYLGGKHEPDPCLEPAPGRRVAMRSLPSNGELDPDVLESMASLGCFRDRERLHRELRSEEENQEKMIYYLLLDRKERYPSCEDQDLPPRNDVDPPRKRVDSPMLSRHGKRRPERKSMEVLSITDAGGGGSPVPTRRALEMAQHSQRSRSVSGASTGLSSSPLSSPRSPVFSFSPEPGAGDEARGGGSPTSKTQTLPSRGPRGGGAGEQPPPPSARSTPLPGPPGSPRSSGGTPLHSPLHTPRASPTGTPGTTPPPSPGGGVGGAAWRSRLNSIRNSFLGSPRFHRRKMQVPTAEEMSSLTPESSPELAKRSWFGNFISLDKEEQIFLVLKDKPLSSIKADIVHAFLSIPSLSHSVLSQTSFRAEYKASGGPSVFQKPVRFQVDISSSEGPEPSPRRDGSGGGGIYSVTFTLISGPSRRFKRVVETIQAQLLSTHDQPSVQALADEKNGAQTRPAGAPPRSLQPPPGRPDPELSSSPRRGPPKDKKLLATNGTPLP
Sequence of TGF-beta receptor type-1 (Homo sapiens) (P36897 whole entry): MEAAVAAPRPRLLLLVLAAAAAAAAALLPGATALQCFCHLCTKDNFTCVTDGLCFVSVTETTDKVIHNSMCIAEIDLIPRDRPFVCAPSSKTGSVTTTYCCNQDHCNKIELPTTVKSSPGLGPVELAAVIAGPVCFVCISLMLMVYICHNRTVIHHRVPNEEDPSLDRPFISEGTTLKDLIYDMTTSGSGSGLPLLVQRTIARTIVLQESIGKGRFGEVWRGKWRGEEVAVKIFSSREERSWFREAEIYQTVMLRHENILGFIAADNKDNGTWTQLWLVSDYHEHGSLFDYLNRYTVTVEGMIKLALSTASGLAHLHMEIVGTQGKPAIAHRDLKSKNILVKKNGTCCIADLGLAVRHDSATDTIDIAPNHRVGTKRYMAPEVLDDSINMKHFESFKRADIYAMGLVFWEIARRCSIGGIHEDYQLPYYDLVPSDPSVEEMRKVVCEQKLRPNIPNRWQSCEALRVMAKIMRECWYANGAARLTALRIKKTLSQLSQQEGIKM
Sequence of Receptor-type tyrosine-protein kinase FLT3 (Homo sapiens) (P36888 whole entry): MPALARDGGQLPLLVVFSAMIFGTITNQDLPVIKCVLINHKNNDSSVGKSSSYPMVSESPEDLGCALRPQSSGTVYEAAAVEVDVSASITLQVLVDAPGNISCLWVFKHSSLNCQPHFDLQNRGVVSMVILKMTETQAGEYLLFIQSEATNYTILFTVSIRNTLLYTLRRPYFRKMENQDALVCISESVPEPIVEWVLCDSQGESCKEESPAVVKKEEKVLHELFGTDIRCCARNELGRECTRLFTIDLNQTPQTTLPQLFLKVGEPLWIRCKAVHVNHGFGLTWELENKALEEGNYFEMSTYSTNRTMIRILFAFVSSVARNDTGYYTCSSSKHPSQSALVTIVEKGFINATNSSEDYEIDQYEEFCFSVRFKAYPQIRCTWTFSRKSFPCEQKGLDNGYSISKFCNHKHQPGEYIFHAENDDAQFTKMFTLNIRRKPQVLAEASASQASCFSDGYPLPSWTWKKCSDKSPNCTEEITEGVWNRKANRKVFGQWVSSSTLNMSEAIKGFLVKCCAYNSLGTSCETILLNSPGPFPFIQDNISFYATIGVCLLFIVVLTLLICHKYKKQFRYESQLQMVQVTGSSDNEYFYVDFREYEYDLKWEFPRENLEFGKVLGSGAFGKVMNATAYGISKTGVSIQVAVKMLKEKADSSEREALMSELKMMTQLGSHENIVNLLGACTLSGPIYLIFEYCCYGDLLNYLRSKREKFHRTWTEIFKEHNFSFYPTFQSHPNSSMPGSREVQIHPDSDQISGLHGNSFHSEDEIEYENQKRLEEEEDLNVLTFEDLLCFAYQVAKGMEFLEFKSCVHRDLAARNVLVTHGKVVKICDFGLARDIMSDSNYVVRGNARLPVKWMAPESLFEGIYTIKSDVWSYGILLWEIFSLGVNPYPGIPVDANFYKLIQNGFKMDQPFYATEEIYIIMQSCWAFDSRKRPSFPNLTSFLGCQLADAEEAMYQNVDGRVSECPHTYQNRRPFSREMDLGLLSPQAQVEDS

## c1ccc(N2CCN(Cc3nc4ccccc4[nH]3)CC2)nc1 [ABT-724]
[1]
  residual activity: 100%
[2]
  residual activity: 95%
[3]
  residual activity: 100%
[4]
  residual activity: 100%
[5]
  residual activity: 91%
[6]
  residual activity: 100%
[7]
  residual activity: 100%
[8]
  residual activity: 100%
[9]
  residual activity: 100%
[10]
  residual activity: 100%
[11]
  residual activity: 100%
[12]
  residual activity: 100%
[13]
  residual activity: 100%
[14]
  residual activity: 100%
[15]
  residual activity: 100%
[16]
  residual activity: 100%
[17]
  residual activity: 100%
[18]
  residual activity: 100%
[19]
  residual activity: 100%
[20]
  residual activity: 100%
[21]
  residual activity: 86%
[22]
  residual activity: 100%
[23]
  residual activity: 100%
[24]
  residual activity: 100%
[25]
  residual activity: 100%
[26]
  residual activity: 72%
[27]
  residual activity: 100%
[28]
  residual activity: 100%
[29]
  residual activity: 100%
[30]
  residual activity: 89%
[31]
  residual activity: 88%
[32]
  residual activity: 100%
[33]
  residual activity: 100%
[34]
  residual activity: 100%
[35]
  residual activity: 100%
[36]
  residual activity: 100%
[37]
  residual activity: 100%
[38]
  residual activity: 100%
[39]
  residual activity: 100%
[40]
  residual activity: 100%
[41]
  residual activity: 100%
[42]
  residual activity: 97%
[43]
  residual activity: 100%
[44]
  residual activity: 100%
[45]
  residual activity: 100%

## CSc1cccnc1N1CCN(Cc2nc3ccccc3[nH]2)CC1 [A-769]
[1]
  residual activity: 77%
[2]
  residual activity: 100%
[3]
  residual activity: 83%
[4]
  residual activity: 100%
[5]
  residual activity: 100%
[6]
  residual activity: 100%
[7]
  residual activity: 100%
[8]
  residual activity: 87%
[9]
  residual activity: 84%
[10]
  residual activity: 89%
[11]
  residual activity: 100%
[12]
  residual activity: 100%
[13]
  residual activity: 100%
[14]
  residual activity: 100%
[15]
  residual activity: 100%
[16]
  residual activity: 66%
[17]
  residual activity: 92%
[18]
  residual activity: 100%
[19]
  residual activity: 100%
[20]
  residual activity: 100%
[21]
  residual activity: 82%
[22]
  residual activity: 100%
[23]
  residual activity: 100%
[24]
  residual activity: 46%
[25]
  residual activity: 87%
[26]
  residual activity: 100%
[27]
  residual activity: 96%
[28]
  residual activity: 88%
[29]
  residual activity: 100%
[30]
  residual activity: 100%
[31]
  residual activity: 100%
[32]
  residual activity: 69%
[33]
  residual activity: 100%
[34]
  residual activity: 91%
[35]
  residual activity: 99%
[36]
  residual activity: 76%
[37]
  residual activity: 93%
[38]
  residual activity: 94%
[39]
  residual activity: 99%
[40]
  residual activity: 82%
[41]
  residual activity: 81%
[42]
  residual activity: 100%
[43]
  residual activity: 100%
[44]
  residual activity: 94%
[45]
  residual activity: 75%
